Data taken from patent US20050112573A1, “Method of detecting toxic substance” (priority 2001, published 2005).

System: yeast genes (level of expressed mRNA)
Test: DNA chip analysis of expressed mRNA of yeast genes after 2 h culture with a toxic chemical substance
Assay type: cell-based, Saccharomyces cerevisiae S288C
Conditions: for The level of expressed mRNA in the presence of chemical substance/ (ratio to absence of chemical substance): stress protein genes, DNA chip
Experimental: Yeast (Saccharomyces cerevtisiae S288C (α SUC2mal mel gap2 CUP1)) were cultured at 25° C. on YPD medium (yeast extract 1%, polypepton 2%, glucose 2%). One of toxic chemical substances was added to the cell at logarithmic growth phase, and the cell was further cultured for two hours. Cell was cultured without any chemical substance in the same condition, and was used as control. Concentrations of the chemical substances were defined to inhibit the growth of the yeast but not lead to death.
After the completion of cultivation, the culture was centrifuged to collect the cells. To the cells, sodium acetate buffer (50 mM sodium acetate, 10 mM EDTA, 1% SDS) was added, and the mixture was shaken at 65° C. for five minutes, followed by returning to room temperature, and obtaining the supernatant, which procedure was repeated two times. To the supernatant, ½ amount of a solution of phenol/chloroform was added, and the mixture was centrifuged to give a supernatant, which was added with an equal amount of chloroform, and the mixture was centrifuged to give a supernatant. To the supernatant, an equal amount of isopropanol containing 0.3 M sodium acetate was added, and the mixture was allowed to stand at room temperature for 30 minutes, after which the mixture was centrifuged to give a sediment of the whole RNAs. Seventy % ethanol was added to the sediment, and the mixture was again centrifuged to give a sediment, which was then dried and dissolved in water. mRNA was isolated from the whole RNAs as followings. In view of the fact that a poly A chain is attached to the 3′ terminus of mRNA, a polynucleotide having a poly T structure which was immobilized on the surface of latex beads was used to trap the mRNA, and then the mRNA was washed and eluted with spine column (Oligotex-dT30<Super>mRNA Purification Kit, Takara). Reverse transcription of the mRNA was conducted with a reverse transcriptase (Super Script II Reverse Transcriptase; catalogue No. 18064-014, GibcoBRL) using fluorescence-labeled nucleotides to give cDNAs that were introduced with Cy3-dUTP or Cy5-dUTP during the reverse transcription.
The labeled cDNAs were dissolved in TE buffer (10 mM Tris-HCl/1 mM EDTA, pH8.0), and the solution was dropped on the DNA chip containing the whole genes of yeast (DNA Chip Research Inc. Japan) so that the cDNAs were hybridized on the DNA chip at 65° C. for over 12 hours. The fluoresces intensity of the DNA chip was read with a scanner, and the ratio relative to the fluorescence intensity resulting from the absence of chemical substance was estimated as the following, which is shown in Tables 1 to 9: [formula]
In the Tables, “Intensity” indicated in the rightmost column is a value of the level of expressed mRNA of each gene in control cells as divided by the average level of the expressions of the whole genes.

COc1cc(CNC(=O)CCCCC=CC(C)C)ccc1O [(12), 8-methyl-N-vanillyl-6-nonenamide]
1.5: The level of expressed mRNA in the presence of chemical substance/The level of expressed mRNA in the absence of chemical substance (yeast gene YKL008C) | The level of expressed mRNA in the presence of chemical substance/The level of expressed mRNA in the absence of chemical substance (yeast gene YLR356W) | The level of expressed mRNA in the presence of chemical substance/The level of expressed mRNA in the absence of chemical substance (yeast gene YMR219W)
2.4: The level of expressed mRNA in the presence of chemical substance/The level of expressed mRNA in the absence of chemical substance (yeast gene YJL052W, two hours culture) | The level of expressed mRNA in the presence of chemical substance/The level of expressed mRNA in the absence of chemical substance (yeast gene YKL165C)
2.2: The level of expressed mRNA in the presence of chemical substance/The level of expressed mRNA in the absence of chemical substance (yeast gene YLR178C)
1.0: The level of expressed mRNA in the presence of chemical substance/The level of expressed mRNA in the absence of chemical substance (yeast gene YIL140W) | The level of expressed mRNA in the presence of chemical substance/ (in its absence), gene YJL070C (yeast gene YJL070C, ratio of DNA chip fluorescence intensity to that without chemical substance) | The level of expressed mRNA in the presence of chemical substance/The level of expressed mRNA in the absence of chemical substance (yeast gene YJL073W) | The level of expressed mRNA in the presence of chemical substance/ (ratio to absence), gene YJL096W (yeast gene YJL096W, mitochondria-located protein genes, 2 h culture with chemical) | The level of expressed mRNA in the presence of chemical substance/ (in its absence), gene YJL216C (yeast gene YJL216C, ratio of DNA chip fluorescence intensity to that without chemical substance) | The level of expressed mRNA in the presence of chemical substance/ (in its absence), gene YKR009C (yeast gene YKR009C, ratio of DNA chip fluorescence intensity to that without chemical substance) | The level of expressed mRNA in the presence of chemical substance/The level of expressed mRNA in the absence of chemical substance (yeast gene YLR250W) | The level of expressed mRNA in the presence of chemical substance/The level of expressed mRNA in the absence of chemical substance (yeast gene YLR391W) | The level of expressed mRNA in the presence of chemical substance/The level of expressed mRNA in the absence of chemical substance (yeast gene YMR004W) | The level of expressed mRNA in the presence of chemical substance/The level of expressed mRNA in the absence of chemical substance (yeast gene YMR104C) | The level of expressed mRNA in the presence of chemical substance/ (ratio to absence of chemical substance) (yeast gene YMR186W) | The level of expressed mRNA in the presence of chemical substance/ (in its absence), gene YMR278W (yeast gene YMR278W, ratio of DNA chip fluorescence intensity to that without chemical substance)
0.9: The level of expressed mRNA in the presence of chemical substance/The level of expressed mRNA in the absence of chemical substance (yeast gene YKL039W) | The level of expressed mRNA in the presence of chemical substance/The level of expressed mRNA in the absence of chemical substance (yeast gene YKL193C) | The level of expressed mRNA in the presence of chemical substance/ in its absence, gene YKR058W (yeast gene YKR058W, energy system protein genes, 2 h culture with the chemical, ratio to control without chemical) | The level of expressed mRNA in the presence of chemical substance/ (in its absence), gene YLR351C (yeast gene YLR351C, ratio of DNA chip fluorescence intensity to that without chemical substance) | The level of expressed mRNA in the presence of chemical substance/ (in its absence), gene YLR375W (yeast gene YLR375W, ratio of DNA chip fluorescence intensity to that without chemical substance) | The level of expressed mRNA in the presence of chemical substance/The level of expressed mRNA in the absence of chemical substance (yeast gene YMR094W) | The level of expressed mRNA in the presence of chemical substance/ (in its absence), gene YMR293C (yeast gene YMR293C, ratio of DNA chip fluorescence intensity to that without chemical substance)
0.5: The level of expressed mRNA in the presence of chemical substance/ in its absence, gene YLR295C (yeast gene YLR295C, energy system protein genes, 2 h culture with the chemical, ratio to control without chemical) | The level of expressed mRNA in the presence of chemical substance/ (ratio to absence), gene YLR295C (yeast gene YLR295C, mitochondria-located protein genes, 2 h culture with chemical)
1.3: The level of expressed mRNA in the presence of chemical substance/ (in its absence), gene YJL167W (yeast gene YJL167W, ratio of DNA chip fluorescence intensity to that without chemical substance) | The level of expressed mRNA in the presence of chemical substance/The level of expressed mRNA in the absence of chemical substance (yeast gene YLR136C)
0.7: The level of expressed mRNA in the presence of chemical substance/The level of expressed mRNA in the absence of chemical substance (yeast gene YKL013C) | The level of expressed mRNA in the presence of chemical substance/ (in its absence), gene YKR034W (yeast gene YKR034W, ratio of DNA chip fluorescence intensity to that without chemical substance) | The level of expressed mRNA in the presence of chemical substance/ (ratio to absence of chemical substance) (yeast gene YKR053C) | The level of expressed mRNA in the presence of chemical substance/ (in its absence), gene YLR006C (yeast gene YLR006C, ratio of DNA chip fluorescence intensity to that without chemical substance) | The level of expressed mRNA in the presence of chemical substance/ (ratio to absence of chemical substance) (yeast gene YLR006C) | The level of expressed mRNA in the presence of chemical substance/ (ratio to absence), gene YMR023C (yeast gene YMR023C, mitochondria-located protein genes, 2 h culture with chemical) | The level of expressed mRNA in the presence of chemical substance/The level of expressed mRNA in the absence of chemical substance (yeast gene YMR275C)
1.4: The level of expressed mRNA in the presence of chemical substance/The level of expressed mRNA in the absence of chemical substance (yeast gene YLR327C)
1.2: The level of expressed mRNA in the presence of chemical substance/The level of expressed mRNA in the absence of chemical substance (yeast gene YJL089W) | The level of expressed mRNA in the presence of chemical substance/The level of expressed mRNA in the absence of chemical substance (yeast gene YMR276W)
1.6: The level of expressed mRNA in the presence of chemical substance/The level of expressed mRNA in the absence of chemical substance (yeast gene YLR120C)
1.1: The level of expressed mRNA in the presence of chemical substance/The level of expressed mRNA in the absence of chemical substance (yeast gene YJL116C) | The level of expressed mRNA in the presence of chemical substance/ (ratio to absence of chemical substance) (yeast gene YJL158C) | The level of expressed mRNA in the presence of chemical substance/The level of expressed mRNA in the absence of chemical substance (yeast gene YLR429W) | The level of expressed mRNA in the presence of chemical substance/The level of expressed mRNA in the absence of chemical substance (yeast gene YMR226C)
0.3: The level of expressed mRNA in the presence of chemical substance/The level of expressed mRNA in the absence of chemical substance (yeast gene YKL096W)
0.8: The level of expressed mRNA in the presence of chemical substance/The level of expressed mRNA in the absence of chemical substance (yeast gene YIL123W) | The level of expressed mRNA in the presence of chemical substance/ (ratio to absence), gene YJL180C (yeast gene YJL180C, mitochondria-located protein genes, 2 h culture with chemical) | The level of expressed mRNA in the presence of chemical substance/The level of expressed mRNA in the absence of chemical substance (yeast gene YJR004C) | The level of expressed mRNA in the presence of chemical substance/The level of expressed mRNA in the absence of chemical substance (yeast gene YJR086W) | The level of expressed mRNA in the presence of chemical substance/ (ratio to absence of chemical substance) (yeast gene YJR090C) | The level of expressed mRNA in the presence of chemical substance/The level of expressed mRNA in the absence of chemical substance (yeast gene YKL041W) | The level of expressed mRNA in the presence of chemical substance/ (ratio to absence of chemical substance) (yeast gene YKL164C) | The level of expressed mRNA in the presence of chemical substance/The level of expressed mRNA in the absence of chemical substance (yeast gene YLR362W) | The level of expressed mRNA in the presence of chemical substance/ in its absence, gene YML129C (yeast gene YML129C, energy system protein genes, 2 h culture with the chemical, ratio to control without chemical) | The level of expressed mRNA in the presence of chemical substance/ (ratio to absence), gene YML129C (yeast gene YML129C, mitochondria-located protein genes, 2 h culture with chemical) | The level of expressed mRNA in the presence of chemical substance/ in its absence, gene YMR267W (yeast gene YMR267W, energy system protein genes, 2 h culture with the chemical, ratio to control without chemical) | The level of expressed mRNA in the presence of chemical substance/ (ratio to absence), gene YMR267W (yeast gene YMR267W, mitochondria-located protein genes, 2 h culture with chemical) | The level of expressed mRNA in the presence of chemical substance/ in its absence, gene YMR267W (yeast gene YMR267W, ratio of DNA chip fluorescence intensity to that without chemical substance)
